According to PMC6369240, “Biological evaluation and structure activity relationship of 9-methyl-1-phenyl-9H-pyrido[3,4-b]indole derivatives as anti-leishmanial agents” (Bioorganic Chemistry, 2019):

Columns and labels:
[1] = system: L. infantum JPCM5 MCAN/ES/98/LLM-87 promastigotes; test: L. infantum promastigote assay (Alamar blue); type: cell-based, Leishmania infantum; settings: for EC50: 72 h, Alamar blue; for S.I (CC50/IC50), L. infantum promastigote: HeLa CC50 / L. infantum promastigote EC50
Method: (§1) Anti-leishmanial activity of these analogues was determined by evaluating their inhibition activity against both promastigote, amastigote forms of Leishmania infantum and Leishmania donovani strains. […] Anti-leishmanial drugs miltefosine and pentamidine were used as standards for comparison purpose.
Anti-promastigote activity of these reported β-carboline derivatives was determined by Alamar blue assay method.
(§2) L. donovanipromastigotes were cultured at 37 °C in M199 medium supplemented with 10% heat-inactivated fetal calf serum. L. infantum JPCM5 MCAN/ES/98/LLM-87 promastigotes were cultured at 26 °C in modified Eagle’s medium (HOMEM). Parasites were incubated with serial dilutions of compounds for 72 h, followed by Alamar blue-based assay as previously described.

[2] = system: L. infantum JPCM5 MCAN/ES/98/LLM-87 axenic amastigotes; test: L. infantum axenic amastigote assay (Alamar blue); type: cell-based, Leishmania infantum; settings: for EC50: Leishmania infantum, 72 h, Alamar blue; for S.I (CC50/IC50), L. infantum axenic amastigote: HeLa CC50 / L. infantum axenic amastigote EC50
Method: Alamar blue assay method was used to determine inhibition potential of these β-carboline derivatives against (human life stage forms) axenic amastigotes.
(§3) L. donovaniLdBOB axenic amastigotes or L. infantum JPCM5 MCAN/ES/98/LLM-87 were cultured at 37 °C in modified Eagle’s medium (HOMEM; L. infantum) and axenic amastigotes were incubated for 72 h with compounds, followed by Alamar blue-based assay as previously described.

[3] = system: L. donovani promastigotes; test: L. donovani promastigote assay (Alamar blue); type: cell-based, Leishmania donovani; settings: for EC50: Leishmania donovani, 72 h, Alamar blue; for S.I (CC50/IC50), L. donovani promastigote: HeLa CC50 / L. donovani promastigote EC50
Method: as §1
L. donovani promastigote inhibition potency of these reported β-carboline derivatives was determined by Alamar blue assay method.
as §2

[4] = system: L. donovani LdBOB axenic amastigotes; test: L. donovani axenic amastigote assay (Alamar blue); type: cell-based, Leishmania donovani; settings: for EC50: Leishmania donovani, 72 h, Alamar blue; for S.I (CC50/IC50), L. donovani axenic amastigote: HeLa CC50 / L. donovani axenic amastigote EC50
Method: as §3

[5] = system: L. donovani LdBOB intracellular amastigotes in PMA differentiated THP-1 cells; test: Intra macrophage L. donovani (amastigote) assay in THP-1 cells; type: cell-based, Leishmania donovani; settings: for EC50: Leishmania donovani, THP-1, 72 h, THP-1 macrophages, 72 h, microscopy readout; for S.I (CC50/IC50), L. donovani intracellular amastigote: HeLa CC50 / L. donovani intracellular amastigote EC50
Method: Although, axenic amastigotes assay most commonly used to screen new leishmanial agents are different from intracellular amastigotes in terms of protein expression and drug susceptibility. […] THP-1 (human monocytic leukemia) cells were a kind gift from Dr Susan Wylie (Dundee) and maintained in minimal essential medium plus 10% (vol/vol) FBS. […] Briefly, THP-1 cells (20,000 per well, 200 μL) were plated into 96 well plates in presence of 10 nM PMA and incubated at 37 °C in 5% CO2 atmosphere for 75 h. […] Any remaining extracellular amastigotes were removed and the adhered cells were washed with the same supplemented PBS solution as above. Pre-aliquoted compounds in a serial dilution were added from another plate, such that the total well volume was 200 μL and incubated for further 72 h. Cells were fixed with 100% methanol, stained with Giemsa and examined microscopically.

[6] = introduction statement; cited from earlier work
[7] = HeLa cell cytotoxicity, Alamar blue assay; type: cell-based; settings: human; HeLa cells, ~65 h incubation plus 5 h Alamar Blue
Method: HeLa cell cytotoxicity studies were carried out as described previously. Briefly, the cells were cultured in DMEM supplemented with 10% fetal calf serum and 2 mM L-glutamine. Cells were plated at initial cell concentration of 2 × 10^4 cells/well and incubated with the compounds for ∼65 h prior to addition of Alamar Blue solution for further 5 h.

Row | Structure (SMILES) | EC50 [1] | EC50 ([1]; Leishmania infantum) | EC50 [2] | EC50 [3] | EC50 [4] | EC50 [5] | half-life [6] | CC50 [7] | S.I (CC50/IC50), L. infantum promastigote [1] | S.I (CC50/IC50), L. infantum axenic amastigote [2] | S.I (CC50/IC50), L. donovani promastigote [3] | S.I (CC50/IC50), L. donovani axenic amastigote [4] | S.I (CC50/IC50), L. donovani intracellular amastigote [5] | melting point
1 | CCCCCCCCCCCCCCCCOP(=O)([O-])OCC[N+](C)(C)C [Miltefosine, reference compound] | 12.6 ± 1.1 µM | 12.4 µM | 4.8 ± 0.8 µM | 3.12 ± 0.16 µM | 2.8 ± 0.4 µM | 6.4 ± 0.3 µM | 150 h |  |  |  |  |  |  | 
2 | Cn1c2ccccc2c2cc(C(=O)N3CCN(c4ccccc4)CC3)nc(-c3ccccc3)c21 [7a, (9-methyl-1-phenyl-9H-pyrido[3,4-b]indol-3-yl)(4-phenylpiperazin-1-yl)methanone] |  | 9.45 ± 0.82 µM | 4.5 ± 0.3 µM | 11.9 ± 1.2 µM | 10 ± 0.3 µM | 13.5 ± 2 µM |  | > 500 µM | >52.9 | >111.1 | >42.0 | 50.0 | 37.0 | 232 to 234 °C
3 | Cn1c2ccccc2c2cc(C(=O)N3CCN(c4ccc([N+](=O)[O-])cc4)CC3)nc(-c3ccccc3)c21 [7j, (9-methyl-1-phenyl-9H-pyrido[3,4-b]indol-3-yl)(4-(4-nitrophenyl)piperazin-1-yl)methanone] |  | 19.7 ± 1.7 µM | 14.6 ± 2.9 µM | 13.1 ± 1.5 µM | 7.5 ± 0.4 µM | 15.4 ± 0.9 µM |  | > 500 µM | >25.3 | >34.2 | >38.2 | 66.7 | 32.5 | 200 to 202 °C
4 | Cn1c2ccccc2c2cc(C(=O)N3CCN(c4ccc(Cl)cc4)CC3)nc(-c3ccccc3)c21 [7g, (4-(4-chlorophenyl)piperazin-1-yl)(9-methyl-1-phenyl-9H-pyrido[3,4-b]indol-3-yl)methanone] |  | 1.47 ± 0.32 µM | 1.9 ± 0.2 µM | 5.02 ± 0.36 µM | 3.8 ± 0.5 µM | 6.3 ± 0.3 µM |  | > 500 µM | >340.1 | >263.2 | >99.6 | 131.6 | 79.4 | 160 to 162 °C
